This note sets out measurements from ChEMBL document CHEMBL2029248, “Fused bicycles as arylketone bioisosteres leading to potent, orally active thiadiazole H3 antagonists” (Bioorg Med Chem Lett, 2012).

Calls of active or inactive are those of the source. No cut-off for these calls is given here.

For series [1], the target named is Histamine H3 receptor (Homo sapiens, UniProt Q9Y5N1). The series can be described thus: Displacement of [3H]N-alpha-methylhistamine from recombinant human histamine H3 receptor expressed in HEK cell membranes after 30 mins by scintillation counting. Also on record: species or system HEK293. On the technique in general: In a radioligand displacement assay an active substance lowers the binding of a labelled ligand.

Series [2] has as its system Mus musculus. The series can be described thus: Antidiabetic activity in STZ-induced diabetic ICR mouse DIO model at 30 mg/kg, po qd for 2 days. Type of series: functional, organism-based. On the set-up: dose 30 mg/kg.
Series [3] addresses Histamine H3 receptor (Mus musculus, UniProt P58406). The series can be described thus: Displacement of [3H]N-alpha-methylhistamine from mouse histamine H3 receptor.
For series [4], the system named is Mus musculus. The series can be described thus: Antiobesity activity in STZ-induced diabetic ICR mouse DIO model at 30 mg/kg, po qd for 2 days. Also on record: dose 30 mg/kg. Type of series: functional, organism-based.
Series [5] has as its system Mus musculus. The series is described as follows: Ex-vivo receptor occupancy in ICR mouse cortex assessed as displacement of [3H]N-alpha-methylhistamine from histamine H3 receptor at 10 mg/kg, po after 4 hrs post dose by scintillation counting. Type of series: functional.
The nature of series [6]: AUC (0 to 6 hrs) in rat at 10 mg/kg, po. The format is ADME, organism-based. Also on record: time < 6 hr, dose 10 mg/kg, route oral. Conditions: plasma.
Series [7] in a line: Drug uptake in rat brain at 10 mg/kg, po after 4 hrs. On the set-up: dose 10 mg/kg, route oral. The settings on record: read-out: Drug uptake. Type of series: ADME, organism-based.
In a further series the target is hERG (Homo sapiens, UniProt Q12809). The series can be described thus: Inhibition of human ERG at 10 uM.
The target in series [8] is T1, Cytochrome P450 3A4 (Homo sapiens, UniProt P08684). The series is described as follows: Inhibition of CYP3A4 co-incubated with compound. Type of series: ADME.
The target in series [9] is T2, Cytochrome P450 2D6 (Homo sapiens, UniProt P10635). The series is described as follows: Inhibition of CYP2D6 preincubated with compound. The format is ADME.
The target of series [10] is T3, Cytochrome P450 2C9 (Homo sapiens, UniProt P11712). The series is described as follows: Inhibition of CYP2C9 preincubated with compound. Type of series: ADME. The settings on record: read-out: INH.
Series [11] relates to Mus musculus. The series can be described thus: Antiobesity activity in STZ-induced diabetic ICR mouse DIO model assessed as change in body weight at 30 mg/kg, po qd for 2 days relative to vehicle-treated control. Type of series: functional.
Series [12] concerns Mus musculus. The series is described as follows: Antidiabetic activity in STZ-induced diabetic ICR mouse DIO model assessed as glucose level at 30 mg/kg, po qd for 2 days. Type of series: functional.
Series [13] relates to Mus musculus. The series is described as follows: Antiobesity activity in STZ-induced diabetic ICR mouse DIO model assessed as reduction in food intake at 30 mg/kg, po qd for 2 days relative to vehicle-treated control. Conditions: 48 h. Type of series: functional.
In series [14] the test system is Mus musculus. The series can be described thus: Ex-vivo receptor occupancy in ICR mouse cortex assessed as displacement of [3H]N-alpha-methylhistamine from histamine H3 receptor at 30 mg/kg, po after 4 hrs post dose by scintillation counting. The format is functional.
In series [15] the target is T1, Cytochrome P450 3A4. The series is described as follows: Inhibition of CYP3A4 preincubated with compound. Type of series: ADME.
Series [16] addresses T2, Cytochrome P450 2D6. The series can be described thus: Inhibition of CYP2D6 co-incubated with compound. Type of series: ADME.
For series [17], the target named is T3, Cytochrome P450 2C9. The series is described as follows: Inhibition of CYP2C9 co-incubated with compound. Type of series: ADME.

Chain of Histamine H3 receptor (Homo sapiens, UniProt Q9Y5N1) (Q9Y5N1 whole entry): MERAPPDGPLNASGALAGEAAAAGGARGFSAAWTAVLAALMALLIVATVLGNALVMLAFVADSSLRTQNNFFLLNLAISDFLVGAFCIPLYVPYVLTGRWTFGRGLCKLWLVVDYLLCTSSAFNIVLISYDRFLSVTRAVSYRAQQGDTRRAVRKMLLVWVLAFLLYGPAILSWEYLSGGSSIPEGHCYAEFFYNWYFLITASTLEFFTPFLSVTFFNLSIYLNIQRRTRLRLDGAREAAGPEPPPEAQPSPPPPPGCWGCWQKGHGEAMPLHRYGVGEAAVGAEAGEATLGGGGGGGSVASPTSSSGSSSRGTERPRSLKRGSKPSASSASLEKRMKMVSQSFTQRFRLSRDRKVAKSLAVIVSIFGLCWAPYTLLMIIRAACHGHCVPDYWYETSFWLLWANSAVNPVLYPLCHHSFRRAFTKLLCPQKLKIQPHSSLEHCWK
T3 sequence (P11712 whole entry): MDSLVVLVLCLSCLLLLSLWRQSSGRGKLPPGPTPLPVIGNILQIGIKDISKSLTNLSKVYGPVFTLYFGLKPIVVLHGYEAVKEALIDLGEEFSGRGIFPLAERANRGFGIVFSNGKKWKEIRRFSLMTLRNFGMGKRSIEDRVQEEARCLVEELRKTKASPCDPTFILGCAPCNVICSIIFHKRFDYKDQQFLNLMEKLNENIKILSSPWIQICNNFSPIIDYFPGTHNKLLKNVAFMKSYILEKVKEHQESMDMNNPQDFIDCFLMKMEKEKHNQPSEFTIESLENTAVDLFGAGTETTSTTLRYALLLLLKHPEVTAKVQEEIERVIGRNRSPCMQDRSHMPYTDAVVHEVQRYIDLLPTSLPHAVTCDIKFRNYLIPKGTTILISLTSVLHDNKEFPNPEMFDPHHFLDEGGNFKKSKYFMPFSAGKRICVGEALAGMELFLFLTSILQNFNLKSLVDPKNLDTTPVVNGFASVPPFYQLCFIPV
T2 sequence (P10635 whole entry): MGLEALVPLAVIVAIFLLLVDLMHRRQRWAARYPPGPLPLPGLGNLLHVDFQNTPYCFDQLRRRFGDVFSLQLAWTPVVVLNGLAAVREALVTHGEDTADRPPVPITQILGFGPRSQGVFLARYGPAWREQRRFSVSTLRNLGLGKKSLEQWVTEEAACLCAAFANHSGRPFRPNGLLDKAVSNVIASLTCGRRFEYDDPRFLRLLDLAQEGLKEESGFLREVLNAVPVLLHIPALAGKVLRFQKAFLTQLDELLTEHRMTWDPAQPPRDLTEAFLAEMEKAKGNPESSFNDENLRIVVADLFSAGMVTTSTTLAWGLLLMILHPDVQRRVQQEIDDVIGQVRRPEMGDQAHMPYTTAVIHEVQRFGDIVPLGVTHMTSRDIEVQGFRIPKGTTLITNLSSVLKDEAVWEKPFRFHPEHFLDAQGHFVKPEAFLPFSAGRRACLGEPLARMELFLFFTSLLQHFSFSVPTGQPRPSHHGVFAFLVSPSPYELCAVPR
T1 sequence (P08684 whole entry): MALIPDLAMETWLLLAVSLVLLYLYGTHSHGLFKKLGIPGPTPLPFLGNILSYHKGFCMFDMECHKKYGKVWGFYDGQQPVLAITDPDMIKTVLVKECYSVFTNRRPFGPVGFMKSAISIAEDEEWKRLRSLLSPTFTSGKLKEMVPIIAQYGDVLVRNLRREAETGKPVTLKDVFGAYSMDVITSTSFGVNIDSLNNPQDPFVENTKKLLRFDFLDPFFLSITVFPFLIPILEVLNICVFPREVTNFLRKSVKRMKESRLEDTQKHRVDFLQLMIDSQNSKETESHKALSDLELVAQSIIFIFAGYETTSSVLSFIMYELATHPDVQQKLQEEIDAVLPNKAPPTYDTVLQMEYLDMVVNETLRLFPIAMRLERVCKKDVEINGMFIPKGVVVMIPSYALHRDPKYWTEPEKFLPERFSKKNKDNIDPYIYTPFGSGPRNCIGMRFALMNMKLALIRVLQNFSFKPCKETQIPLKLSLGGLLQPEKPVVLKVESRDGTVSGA
Chain of Histamine H3 receptor (Mus musculus, UniProt P58406) (P58406 whole entry): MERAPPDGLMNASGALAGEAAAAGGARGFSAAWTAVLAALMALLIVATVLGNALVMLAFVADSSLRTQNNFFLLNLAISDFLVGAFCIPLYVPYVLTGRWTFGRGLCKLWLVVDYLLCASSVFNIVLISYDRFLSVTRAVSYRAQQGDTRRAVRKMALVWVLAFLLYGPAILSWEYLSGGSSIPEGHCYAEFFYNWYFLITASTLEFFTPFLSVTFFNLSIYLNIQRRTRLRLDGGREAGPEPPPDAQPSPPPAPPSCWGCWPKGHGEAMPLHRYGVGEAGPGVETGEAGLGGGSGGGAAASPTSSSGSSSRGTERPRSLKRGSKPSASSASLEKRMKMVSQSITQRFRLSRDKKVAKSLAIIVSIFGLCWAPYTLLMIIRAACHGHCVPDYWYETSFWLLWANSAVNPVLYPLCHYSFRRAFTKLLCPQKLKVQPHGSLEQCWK
Chain of hERG (Q12809 whole entry): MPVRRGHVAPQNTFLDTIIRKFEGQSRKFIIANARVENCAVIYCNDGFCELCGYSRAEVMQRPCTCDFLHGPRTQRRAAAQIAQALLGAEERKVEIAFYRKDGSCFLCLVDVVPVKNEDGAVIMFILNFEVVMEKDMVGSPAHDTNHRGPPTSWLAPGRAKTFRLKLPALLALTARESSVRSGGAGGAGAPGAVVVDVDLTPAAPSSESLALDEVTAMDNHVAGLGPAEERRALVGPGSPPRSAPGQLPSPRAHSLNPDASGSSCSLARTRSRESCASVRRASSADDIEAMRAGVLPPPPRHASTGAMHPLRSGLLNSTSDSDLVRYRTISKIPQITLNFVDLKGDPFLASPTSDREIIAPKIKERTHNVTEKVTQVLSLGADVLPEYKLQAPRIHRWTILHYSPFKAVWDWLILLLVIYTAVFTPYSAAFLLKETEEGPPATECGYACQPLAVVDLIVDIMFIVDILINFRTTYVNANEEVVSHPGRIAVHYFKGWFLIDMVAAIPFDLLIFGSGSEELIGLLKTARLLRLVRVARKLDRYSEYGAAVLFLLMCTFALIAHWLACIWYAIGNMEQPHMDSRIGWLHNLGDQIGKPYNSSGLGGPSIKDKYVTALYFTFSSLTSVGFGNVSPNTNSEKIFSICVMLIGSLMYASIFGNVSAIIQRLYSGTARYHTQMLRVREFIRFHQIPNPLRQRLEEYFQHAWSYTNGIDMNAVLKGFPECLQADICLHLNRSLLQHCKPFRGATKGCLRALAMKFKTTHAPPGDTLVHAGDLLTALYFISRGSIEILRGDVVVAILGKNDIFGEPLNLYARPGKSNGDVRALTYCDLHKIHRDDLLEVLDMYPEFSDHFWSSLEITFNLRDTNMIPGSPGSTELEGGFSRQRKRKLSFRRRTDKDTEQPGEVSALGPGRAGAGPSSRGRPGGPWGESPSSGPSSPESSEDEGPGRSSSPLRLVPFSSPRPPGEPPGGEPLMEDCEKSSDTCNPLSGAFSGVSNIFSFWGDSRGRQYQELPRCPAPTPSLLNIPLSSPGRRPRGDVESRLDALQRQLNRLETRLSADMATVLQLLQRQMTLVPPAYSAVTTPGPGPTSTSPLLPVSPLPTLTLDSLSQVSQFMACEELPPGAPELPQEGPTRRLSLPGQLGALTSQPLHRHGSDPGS

What is called Ki is a measure of affinity in units of concentration, obtained from inhibition or displacement. On to `Cc1nc2cc(-c3nnc(N4CCC(N5CCCCC5)CC4)s3)ccc2o1`, for which the Ki on Histamine H3 receptor [1] turned out to be 24.5 nM.
With `O=C1COc2ccc(-c3nnc(N4CCC(N5CCCCC5)CC4)s3)cc2N1`, the inhibition constant Ki on Histamine H3 receptor [1] is 22.1 nM.
For orientation: AUC(0-t) means the area under the concentration-time curve up to a stated or last time point. A low value points to less exposure. Take `Cc1nnc(-c2cccc(-c3nnc(N4CCC(N5CCCCC5)CC4)s3)c2)o1`: the result with Mus musculus [2] and in the series with Mus musculus [4] was inactive. For the same compound, the Ki was determined as 22.8 nM on Histamine H3 receptor [1] and 40 nM on Histamine H3 receptor [3]. The Occ with Mus musculus [5] stood at 46%. Also, the AUC(0-t) at 6 h in series [6] came out at 2500 ng·h/mL. Moreover, the concentration at 4 h in [7] was found to be 1290 ng/g.
Turning to `Cc1nnc2ccc(-c3nnc(N4CCC(N5CCCCC5)CC4)s3)cn12`, the outcome with Mus musculus [2] and in the series with Mus musculus [4] was inactive. Further, the Ki was 3.4 nM at Histamine H3 receptor [1] and 2.4 nM on Histamine H3 receptor [3]. For the same compound, in the series with Mus musculus [5], the Occ is 34%. Moreover, the AUC(0-t) at 6 h in [6] worked out at 1200 ng·h/mL. Besides, in series [7], the concentration at 4 h was 25 ng/g.
Take `O=C(c1cccc(-c2nnc(N3CCC(N4CCCCC4)CC3)s2)c1)N1CCC1`: at Histamine H3 receptor [1], the inhibition constant Ki came out at 78.9 nM.
By inhibition is commonly meant the drop in the measured response relative to a control, in per cent. A low value points to a weak effect. The inhibition in vivo is how much of the control response was suppressed. For the compound `CC(=O)c1cccc(-c2nnc(N3CCC(N4CCCCC4)CC3)s2)c1`, the inhibition at 10 µM on hERG was 40%. Moreover, the INH at Cytochrome P450 3A4 [8], on Cytochrome P450 2D6 [9], at Cytochrome P450 3A4 [15], at Cytochrome P450 2D6 [16] and at Cytochrome P450 2C9 [17] was greater than 20 µM in each case. Moreover, the IC50 at Cytochrome P450 2C9 [10] is greater than 20000 nM. The Activity in the series with Mus musculus [11] is -1.01%; in the series on Mus musculus [12] it was 7.08 mg/mL. Besides, the inhibition in vivo at 30 mg/kg with Mus musculus [13] was found to be 5.61%. Besides, the Occ in the series with Mus musculus [14] was 62%.
In the case of `O=c1ccc2ccc(-c3nnc(N4CCC(N5CCCCC5)CC4)s3)cc2[nH]1`, at Histamine H3 receptor [1], the Ki was found to be 35.9 nM. Further, the Occ in the series on Mus musculus [5] came to 2%.
Consider `O=c1ccc2c(-c3nnc(N4CCC(N5CCCCC5)CC4)s3)cccc2[nH]1`, for which the inhibition constant Ki on Histamine H3 receptor [1] was determined as 20 nM. Moreover, the Occ in the series on Mus musculus [5] is reported as 6%.
Take `O=c1ccnc2c(-c3nnc(N4CCC(N5CCCCC5)CC4)s3)cccn12`: the result in the series with Mus musculus [2] and in the series with Mus musculus [4] was inactive. Also, the Ki came out at 2.1 nM on Histamine H3 receptor [1] and 2.6 nM on Histamine H3 receptor [3]. For the same compound, the Occ in the series with Mus musculus [5] was 94%. Moreover, in [6], the area under the curve AUC(0-t) at 6 h was 840 ng·h/mL. Also, the concentration at 4 h in series [7] amounted to 2670 ng/g.
On to `CC(O)c1cccc(-c2nnc(N3CCC(N4CCCCC4)CC3)s2)c1` (centres undefined), for which the Ki on Histamine H3 receptor [1] was 29 nM.
As to `c1cc(-c2nnc(N3CCC(N4CCCCC4)CC3)s2)c2ccncc2c1`, the inhibitory constant (Ki) at Histamine H3 receptor [1] turned out to be 17.8 nM. Also, the Occ in the series with Mus musculus [5] was 19%.
On to `CC(=O)Nc1cccc(-c2nnc(N3CCC(N4CCCCC4)CC3)s2)c1`, for which the inhibition constant Ki on Histamine H3 receptor [1] worked out at 16.5 nM.
Regarding `O=C(c1cccc(-c2nnc(N3CCC(N4CCCCC4)CC3)s2)n1)N1CCC1`, the inhibition constant (Ki) on Histamine H3 receptor [1] stood at 4.4 nM. Further, the Occ in the series with Mus musculus [5] came out at 6%.
As for `O=c1ccoc2ccc(-c3nnc(N4CCC(N5CCCCC5)CC4)s3)cc12`, the outcome in the series on Mus musculus [2] and with Mus musculus [4] was inactive. Moreover, the figures for the Ki on Histamine H3 receptor [1] and at Histamine H3 receptor [3] were 12.7 nM and 12 nM, respectively. Also, the Occ in the series on Mus musculus [5] was 84%. The area under the curve AUC(0-t) at 6 h in series [6] stood at 1300 ng·h/mL. In addition, the concentration at 4 h in [7] came out at 268 ng/g.
For `c1cnc2c(-c3nnc(N4CCC(N5CCCCC5)CC4)s3)cccc2c1`, the outcome with Mus musculus [2] and in the series on Mus musculus [4] was inactive. For the same compound, the Ki came out at 4.6 nM on Histamine H3 receptor [1] and 7.2 nM on Histamine H3 receptor [3]. Besides, the Occ in the series on Mus musculus [5] stood at 77%. The same compound yielded an exposure AUC(0-t) at 6 h in series [6] of 530 ng·h/mL. Moreover, in series [7], the concentration at 4 h amounted to 110 ng/g.
`O=C1Cc2cc(-c3nnc(N4CCC(N5CCCCC5)CC4)s3)ccc2N1`: at Histamine H3 receptor [1], the Ki is 64.4 nM.
Take `Cc1cc(=O)c2cc(-c3nnc(N4CCC(N5CCCCC5)CC4)s3)ccc2o1`: the Ki on Histamine H3 receptor [1] is 82.8 nM. In addition, in [6], the AUC(0-t) at 6 h was 8000 ng·h/mL.
Consider `O=c1ccnc2ccc(-c3nnc(N4CCC(N5CCCCC5)CC4)s3)cn12`, for which, on hERG, 10 µM produced 7% inhibition. The inhibitory constant (Ki) on Histamine H3 receptor [1] amounted to 13 nM; at Histamine H3 receptor [3], 25 nM. In addition, the INH at Cytochrome P450 3A4 [8], at Cytochrome P450 2D6 [9], at Cytochrome P450 3A4 [15], on Cytochrome P450 2D6 [16] and on Cytochrome P450 2C9 [17] was greater than 20 µM throughout. Moreover, the IC50 at Cytochrome P450 2C9 [10] is greater than 20000 nM. The Activity with Mus musculus [11] is -3.02%. In the series on Mus musculus [12], the glucose change is -87 mg/dL. Further, the inhibition in vivo at 30 mg/kg with Mus musculus [13] was 33.6%. For the same compound, the Occ with Mus musculus [5] is recorded as 69%. Besides, the AUC(0-t) at 6 h in [6] was found to be 7300 ng·h/mL. The concentration at 4 h in series [7] stood at 1340 ng/g.
Consider `O=c1ccc2cc(-c3nnc(N4CCC(N5CCCCC5)CC4)s3)ccc2[nH]1`, for which, on Histamine H3 receptor [1], the inhibitory constant (Ki) turned out to be 10 nM. For the same compound, the Occ with Mus musculus [5] is recorded as 25%.
For `c1cc(-c2nnc(N3CCC(N4CCCCC4)CC3)s2)n2nccc2c1`, in that order: 3.2 nM and 22%.
For `O=c1cccnn1-c1cccc(-c2nnc(N3CCC(N4CCCCC4)CC3)s2)c1` the same measures were 12 nM and 25%.
Take `CN(C)C(=O)c1cccc(-c2nnc(N3CCC(N4CCCCC4)CC3)s2)c1`: the Ki on Histamine H3 receptor [1] was found to be 192 nM.
